Data from patent US7402697B2, “Antibacterial agents” (Idexx Laboratories Inc., priority 2004, dated 2008).
In brackets after ≈: the same amount, converted by molar mass. Entries after “also recorded” stand apart in the source; their conditions may differ.

What was measured:
[1] = tested on: B. bronchoseptica; assay: Minimum inhibitory concentration, disk diffusion susceptibility testing; type: cell-based
Experimental: (§1) The activity of a Fenicol Compound against a bacteria is determined using standard dilution tests. For example, the minimum inhibitory concentrations can be determined using the disk diffusion susceptibility testing method described in Clinical Microbiology Procedures Handbook, volume 1, edited by Henry D. Isenberg, American Society for Microbiology, 1992, section 5.1 or the well known method of Bauer et al. “Antibiotic Susceptibility Testing by a Standardized Single Disc Method,” Amer. J. Clin. Pathol., 45, p. 493-496.

[2] = tested on: B. subtitis; assay: as above; type: cell-based
Experimental: as §1

[3] = tested on: E. coli; assay: as above; type: cell-based; settings: for Minimum Inhibitory Concentration: E. coli
Experimental: as §1

[4] = tested on: E. faecalis; assay: as above; type: cell-based
Experimental: as §1

[5] = tested on: K. pneumoniae; assay: as above; type: cell-based
Experimental: as §1

[6] = tested on: S. aureaus; assay: as above; type: cell-based
Experimental: as §1

[7] = tested on: S. pyogenes; assay: as above; type: cell-based
Experimental: as §1

[8] = Serum concentration as a function of time after subcutaneous administration to dogs (HPLC); type: in vivo; settings: for clearance of each isomer, serum concentration as percent of CmaxR or CmaxS as a function of time: 40 mg/kg of A2 as equimolar mixture of (R) and (S) acylamido configuration; for clearance rate: compared with NUFLOR®
Experimental: The pharmaceutical composition was then administered to dogs at a dose of 40 mg/kg. Blood samples were taken from the dog at various time points and serum separated using standard methods well known to those skilled in the art. The serum was then analyzed using HPLC according to the following procedure: A C18 Sep-Pak Plus® cartridge (Sep-Pak) (commercially available from Waters of Milford, Mass.) was rinsed with 5 mL of methanol followed by 5 mL of water and loaded with 1 mL of serum. After loading, the Sep-Pak was washed with 2 mL of water, 2 mL of 15% aqueous acetonitrile, and 3 mL of hexane. The Sep-Pak was then eluted with 4 mL of acetonitrile and the eluant collected. The acetonitrile was evaporated using a stream of nitrogen to provide a residue and the resulting residue was reconstituted with 1 mL of 25% aqueous acetonitrile to provide an assay solution. 50 μL of the assay solution was then analyzed by HPCL using high pressure liquid chromatography equipped with a Beckman Coulter Ultraphere C-18 5 μM×4.6 mm×250 mm analytical column eluted at a flow of 1.2 mL/min. using a gradient of water and acetonitrile according to the following profile: [table] The HPLC system was interfaced to a UV detector operated at 223 nm. […] The pharmaceutical composition was then administered to dogs subcutaneously at a a dose of 40 mg/kg. Blood samples were taken from the dogs at various time points and the blood samples treated as described above. The serum was then analyzed using the HPLC procedure described above. […] The pharmaceutical composition was then administered to dogs subcutaneously at a a dose of 40 mg/kg. Blood samples were taken from the dogs at various time points and the blood samples treated as described above. The serum was then analyzed using the HPLC procedure described above. […] The maximum serum level was determined for each isomer (CmaxR and CmaxS, respectively).

| Structure (SMILES) | Minimum Inhibitory Concentration [1] [µg/mL] | Minimum Inhibitory Concentration [2] [µg/mL] | Minimum Inhibitory Concentration [3] [µg/mL] | Minimum Inhibitory Concentration [5] [µg/mL] | Minimum Inhibitory Concentration [6] [µg/mL] | Minimum Inhibitory Concentration [7] [µg/mL] | maximum serum concentration ([8]; 40 mg/kg) | further results |
| --- | --- | --- | --- | --- | --- | --- | --- | --- |
| CC(F)C(=O)NC(CF)C(O)c1ccc(S(C)(=O)=O)cc1 (mixture of isomers) [E5 + I5 (Racemic Mixture)] | >10 | 1 | 5 | 5 | 5 | 5 | – | Minimum Inhibitory Concentration [4]: 3 µg/mL |
| CC(Cl)C(=O)NC(CF)C(O)c1ccc(S(C)(=O)=O)cc1 (mixture of isomers) [E2 + I2 (Racemic Mixture)] | 3 | 0.5 | 3 | 5 | 2 | – | – | – |
| C[C@H](C(=O)N[C@H](CF)[C@H](O)c1ccc(S(C)(=O)=O)cc1)C(F)(F)F [A2 wherein the acylamido group has the (R) stereochemical co] | – | – | – | – | – | – | – | clearance of each isomer, serum concentration as percent of CmaxR or CmaxS as a function of time ([8]; 40 mg/kg): cleared more slowly |
| C[C@H](C(=O)N[C@H](CF)[C@H](O)c1ccc(S(C)(=O)=O)cc1)C(F)(F)F [A2 wherein the acylamido group is present in the (R) stereoc] | – | – | – | – | – | – | – | clearance of each isomer, serum concentration as percent of CmaxR or CmaxS as a function of time ([8]; 40 mg/kg): decreases much more slowly |
| CS(=O)(=O)c1ccc([C@@H](O)[C@@H](CF)NC(=O)C(Cl)Cl)cc1 [Fluorfenicol, reference compound] | – | – | – | – | – | – | less than 0.8 μg/mL | MIC [1]: 1 µg/mL (≈ 2.79 µM); MIC [2]: 1 µg/mL (≈ 2.79 µM); MIC ([3]; Escherichia coli, read-out: Minimum Inhibitory Concentration): 1 µg/mL (≈ 2.79 µM); MIC ([4]; Enterococcus faecalis): 3 µg/mL (≈ 8.37 µM); MIC ([5]; Klebsiella pneumoniae): 3 µg/mL (≈ 8.37 µM); MIC [6]: 1 µg/mL (≈ 2.79 µM); MIC ([7]; Streptococcus pyogenes): 1 µg/mL (≈ 2.79 µM) |
| CC(C(=O)NC(CF)C(O)c1ccc(S(C)(=O)=O)cc1)C(F)(F)F (mixture of isomers) [A2] | – | 5 | 7 | – | 7 | 5 | ~5 µg/mL | Minimum Inhibitory Concentration [4]: 5 µg/mL; serum concentration compared with NUFLOR® ([8]; 40 mg/kg): much higher serum concentration; clearance rate ([8]; 40 mg/kg): much slower than the clearance rate of NUFLOR®; also recorded: cleared more slowly than is NUFLOR® |
| CC(C)C(=O)N[C@H](CF)[C@H](O)c1ccc(S(C)(=O)=O)cc1 [A1] | – | 2 | 5 | – | 3 | 5 | ~7 µg/mL | serum concentration compared with NUFLOR® ([8]; 40 mg/kg): higher serum concentration than NUFLOR®; clearance rate ([8]; 40 mg/kg): cleared much more slowly; also recorded: cleared more slowly than NUFLOR® |
| C[C@@H](C(=O)N[C@H](CF)[C@H](O)c1ccc(S(C)(=O)=O)cc1)C(F)(F)F | – | – | – | – | – | – | – | clearance of each isomer, serum concentration as percent of CmaxR or CmaxS as a function of time [8]: decreases rapidly |
| CS(=O)(=O)c1ccc([C@@H](O)[C@@H](CF)NC(=O)CCl)cc1 [D-threo-2-chloro-N-[1-(fluoromethyl)-2-hydroxy-2-[4-methylsulfonyl)phenyl]ethyl]-acetamide] | 3 | 0.5 | 3 | 5 | 2 | – | – | – |
